For the experiment, the system named is beta-TC6 cells. Nature of the experiment: Insulin HTRF assay (relative activity Ar) in beta-TC6 cells. In kind it is cell-based, mouse. The settings on record: Mus musculus, Beta-TC6, 4 h, insulin HTRF, supernatant of beta-TC6 cells, incubation with test compound at 37°C for 2, 3, 4h; read-out: Ar (relative activity). The essentials:
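beta-TC6 cells (15k/well, seeded 24 or 48 h) washed, then exposed to compound in induction buffer (0.5% DMSO final) for 2, 3 or 4 h at 37°C.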
(In general: In TR-FRET formats the signal depends on donor and acceptor labels being close together.)

`COCCCNc1nccc2[nH]c(-c3ccccc3)nc12` [Compound 340, N-(3-methoxypropyl)-2-phenyl-1H-imidazo[4,5-c]pyridin-4-amine]: the Emax is 30 to 50%.

`CNc1nc2cnc(Nc3ccc(OC)cc3OC)cc2n1CCN1CCOCC1` [Compound 553, N6-(2,4-dimethoxyphenyl)-N2-methyl-1-(2-morpholinoethyl)imidazo[4,5-c]pyridine-2,6-diamine]: the Emax fell in the range of 30 to 50%.

Take `Cn1cncc1-c1cc2cnc(Nc3cccc(Cl)c3)cc2[nH]1` [Compound 103, N-(3-chlorophenyl)-2-(3-methylimidazol-4-yl)-1H-pyrrolo[3,2-c]pyridin-6-amine]: the Emax was 30 to 50%.

As to `COc1cc(Nc2cc3[nH]c(-c4ccccc4)cc3cn2)cc(OC)c1OC` [Compound 174, 2-phenyl-N-(3,4,5-trimethoxyphenyl)-1H-pyrrolo[3,2-c]pyridin-6-amine], the Emax was 50 to 100%.

As for `FC(F)(F)c1cccc(Nc2nccc3[nH]c(-c4ccccc4Cl)nc23)c1` [Compound 462, 2-(2-chlorophenyl)-N-[3-(trifluoromethyl)phenyl]-1H-imidazo[4,5-c]pyridin-4-amine], the Emax was in the range of 0 to 30%.

As for `COc1ccc(Nc2cc3c(cn2)cc(-c2cnn(C)c2)n3C)cn1` [Compound 130, N-(6-methoxy-3-pyridyl)-1-methyl-2-(1-methylpyrazol-4-yl)pyrrolo[3,2-c]pyridin-6-amine], the Emax was greater than 100%.

As for `COc1ccc(Nc2nccc3[nH]c(-c4cccc(F)c4)nc23)cc1` [Compound 407, 2-(3-fluorophenyl)-N-(4-methoxyphenyl)-1H-imidazo[4,5-c]pyridin-4-amine], the Emax fell in the range of 50 to 100%.

Turning to `FC(F)(F)Oc1cccc(Nc2cc3[nH]c(-c4ccccn4)cc3cn2)c1` [Compound 69, 2-(2-pyridyl)-N-[3-(trifluoromethoxy)phenyl]-1H-pyrrolo[3,2-c]pyridin-6-amine], the Emax was in the range of 30 to 50%.

As for `COc1cccc(-c2nc3c(N4CCOCC4)nccc3[nH]2)c1` [Compound 375, 4-[2-(3-methoxyphenyl)-1H-imidazo[4,5-c]pyridin-4-yl]morpholine], the Emax lay within 30 to 50%.

`CNc1nc2cnc(Nc3cccc(N(C)C)c3)cc2n1CC1CC1` [Compound 573, 1-(cyclopropylmethyl)-N6-[3-(dimethylamino)phenyl]-N2-methyl-imidazo[4,5-c]pyridine-2,6-diamine]: the Emax is 30 to 50%.

As to `Cn1cc(-c2cc3cnc(Nc4cccc(O)c4)cc3n2C)cn1` [Compound 144, 3-[[1-methyl-2-(1-methylpyrazol-4-yl)pyrrolo[3,2-c]pyridin-6-yl]amino]phenol], the Emax was greater than 100%.

On to `COc1ccc(Nc2nccc3[nH]c(-c4cccc(F)c4)nc23)cn1` [Compound 405, 2-(3-fluorophenyl)-N-(6-methoxy-3-pyridyl)-1H-imidazo[4,5-c]pyridin-4-amine], for which the Emax was 30 to 50%.

Take `COc1cccc(Nc2cc3c(cn2)cc(-c2ccc(C(=O)N(C)C)cc2)n3C)c1` [Compound 45, 4-[6-(3-methoxyanilino)-1-methyl-pyrrolo[3,2-c]pyridin-2-yl]-N,N-dimethyl-benzamide]: the Emax was in the range of 30 to 50%.

Take `COc1ccc(Cn2cnc3cnc(Nc4ccc(NC(C)=O)cc4)cc32)cc1OC` [Compound 730, N-[4-[[1-[(3,4-dimethoxyphenyl)methyl]imidazo[4,5-c]pyridin-6-yl]amino]phenyl]acetamide]: the Emax was 50 to 100%.

`CNc1nc2cnc(Nc3ccc(OC)cc3OC)cc2n1-c1cccc(C(F)(F)F)c1` [Compound 543, N6-(2,4-dimethoxyphenyl)-N2-methyl-1-[3-(trifluoromethyl)phenyl]imidazo[4,5-c]pyridine-2,6-diamine]: the Emax was 30 to 50%.

With `Cn1c(-c2ccsc2)cc2c(Nc3ccc4c(c3)OCCO4)nccc21` [Compound 273, N-(2,3-dihydro-1,4-benzodioxin-6-yl)-1-methyl-2-(3-thienyl)pyrrolo[3,2-c]pyridin-4-amine], the Emax lay within 30 to 50%.

Consider `Cc1cccc(-c2nc3c(NCCc4ccccn4)nccc3[nH]2)c1` [Compound 437, 2-(m-tolyl)-N-[2-(2-pyridyl)ethyl]-1H-imidazo[4,5-c]pyridin-4-amine], for which the Emax lay in the range of 30 to 50%.

For the compound `Oc1cccc(Nc2nccc3[nH]c(-c4ccncc4)nc23)c1` [Compound 431, 3-[[2-(4-pyridyl)-1H-imidazo[4,5-c]pyridin-4-yl]amino]phenol], the Emax lay in the range of 50 to 100%.

Take `Cn1c(NCC2CC2)nc2cnc(Nc3cccc(Oc4ccccc4)c3)cc21` [Compound 750, N2-(cyclopropylmethyl)-1-methyl-N6-(3-phenoxyphenyl)imidazo[4,5-c]pyridine-2,6-diamine]: the Emax was in the range of 0 to 30%.

Consider `Cn1c(Nc2ccccc2)nc2cnc(Nc3cccc(O)c3)cc21` [Compound 638, 3-[(2-anilino-1-methyl-imidazo[4,5-c]pyridin-6-yl)amino]phenol], for which the Emax is 50 to 100%.

With `CN1CCN(c2cc3[nH]c(-c4cccc(C(F)(F)F)c4)cc3cn2)CC1` [Compound 4, 6-(4-methylpiperazin-1-yl)-2-[3-(trifluoromethyl)phenyl]-1H-pyrrolo[3,2-c]pyridine], the Emax is 30 to 50%.

Take `CNc1nc2cnc(Nc3ccc(C(C)C)cc3)cc2n1CCOC` [Compound 498, N6-(4-isopropylphenyl)-1-(2-methoxyethyl)-N2-methyl-imidazo[4,5-c]pyridine-2,6-diamine]: the Emax is 30 to 50%.

Take `CS(=O)(=O)c1ccc(Nc2cc3[nH]c(-c4cn[nH]c4)cc3cn2)cc1` [Compound 120, N-(4-methylsulfonylphenyl)-2-(1H-pyrazol-4-yl)-1H-pyrrolo[3,2-c]pyridin-6-amine]: the Emax is greater than 100%.

Turning to `CNc1nc2cnc(-c3ccc(Cl)cc3)cc2n1Cc1ccccc1` [Compound 792, 1-benzyl-6-(4-chlorophenyl)-N-methyl-imidazo[4,5-c]pyridin-2-amine], the Emax was in the range of 30 to 50%.

As for `Cn1c(NCC2CC2)nc2cnc(-c3ccc(N4CCNCC4)cc3)cc21` [Compound 597, N-(cyclopropylmethyl)-1-methyl-6-(4-piperazin-1-ylphenyl)imidazo[4,5-c]pyridin-2-amine], the Emax was in the range of 50 to 100%.

Turning to `COc1cc(Nc2nccc3[nH]c(-c4cccc(C)c4)nc23)cc(OC)c1OC` [Compound 435, 2-(m-tolyl)-N-(3,4,5-trimethoxyphenyl)-1H-imidazo[4,5-c]pyridin-4-amine], the Emax was 50 to 100%.

Consider `Cn1c(-c2ccsc2)cc2c(Nc3ccncc3)nccc21` [Compound 278, 1-methyl-N-(4-pyridyl)-2-(3-thienyl)pyrrolo[3,2-c]pyridin-4-amine], for which the Emax fell in the range of 50 to 100%.

For `COc1ccccc1-c1cc2c(Nc3ccc(NC(C)=O)cc3)nccc2n1C` [Compound 301, N-[4-[[2-(2-methoxyphenyl)-1-methyl-pyrrolo[3,2-c]pyridin-4-yl]amino]phenyl]acetamide], the Emax lay in the range of 50 to 100%.

As for `Cn1cc(-c2cc3cnc(Nc4ccc5c(c4)OCCO5)cc3[nH]2)cn1` [Compound 122, N-(2,3-dihydro-1,4-benzodioxin-6-yl)-2-(1-methylpyrazol-4-yl)-1H-pyrrolo[3,2-c]pyridin-6-amine], the Emax was in the range of 30 to 50%.

In the case of `CNc1nc2cnc(Nc3ccc(N4CCN(C)CC4)cc3)cc2n1CC1CC1` [Compound 572, 1-(cyclopropylmethyl)-N2-methyl-N6-[4-(4-methylpiperazin-1-yl)phenyl]imidazo[4,5-c]pyridine-2,6-diamine], the Emax was in the range of 50 to 100%.

These data come from EP2818472A1, “Imidazo[4,5-c]pyridine and pyrrolo[3,2-c]pyridine compounds as G-protein-coupled receptor kinase 5 (GRK5) modulators” (Max-Planck-Gesellschaft zur Förderung der Wissenschaften …, priority 2013, dated 2014).
